From patent publication US9029451B2, “Waterborne coating compositions that include 2,2,4-trimethyl-3-oxopentanoate esters as reactive coalescents” (Eastman Chemical Company, priority 2010, dated 2015)
Read-outs that look alike come from different tables or passages of the source.

Assays:
[1] = Hydrolytic stability in latex at 120° F., pH and Brookfield viscosity; type: physicochemical
Method: Approximately 100 grams of either Rhoplex AC 2508 (Rohm & Haas acrylic polymer emulsion) or Rhoplex SG-10M (Rohm & Haas acrylic polymer emulsion) was weighed out into a 4 ounce jar and 10 phr (parts per hundred resin) of the coalescing aid was added (based on percent solids of the emulsion by weight). The sample was placed on lab rollers for 24 hours before the initial pH and viscosity was taken. The viscosity was measured by a Brookfield viscometer in centipoises. The sample was then placed into a lab oven at 120° F. The pH and viscosity was checked weekly for four weeks (Tables 3 & 4). Any change in the appearance of the sample such as gel particles or phase separation was recorded weekly also.

[2] = % non-volatile, 110° C. for 1 hour (ASTM D2369); type: physicochemical
Method: 2,2,4-trimethyl-3-oxopentanoate esters useful as reactive coalescents according to the invention include those having a weight percent volatile content of less than 50%, as measured according to ASTM Method D2369. This test may be conducted generally by heating the sample in a forced air oven at 110° C. for 60 minutes. The weight loss after the test is deemed to result from a loss of volatiles originally present in the sample; the percent volatile present in the original sample may then be calculated. Although the cited test can be conducted on coating compositions containing other components such as latex polymers, the values cited herein may be obtained from a sample of the coalescent itself. Thus, the weight percent volatile of a coalescent may be used herein as a yardstick to measure the amount of VOC the coalescent would contribute to the VOC of a coating composition.

Density, ASTM D 1475-98 = type: physicochemical
[3] = MFFT testing, coalescing efficiency
Method: The MFFT samples were prepared by weighing out 20 grams (+/−0.01 g) of emulsion into 50 ml beakers. The beakers of emulsion were placed on magnetic stirrers and the coalescing aid added dropwise by pipet. The weight of the drops were determined by adding 40 drops of the coalescing aid to a tared weighing dish, then the weight per drop was calculated by taking an average of the total weight (total weight divided by 40 drops). The coalescing aid was added to the emulsion based on solids by weight. The MFFT samples were allowed to stir for approximately 15 minutes, transferred to 8 dram vials and placed onto lab rollers and allowed to equilibrate for at least 24 hours. The samples were then drawn down on the MFFT bar, which is typically set on range #2 (0° to 18° C.), and the films allowed to dry. The areas in which the films have stopped cracking are visually determined and the MFFT value is read from the scale on the instrument and converted to degrees Fahrenheit. Linear Regression was used to calculate the amount of coalescing aid required to lower the films MFFT to 40° F. In Table #5, the phr40 values (parts per hundred resin based on solids by weight) are the amount of coalescing aid required to reduce the MFFT to 40° F. A lower number indicates the coalescent is more efficient at reducing the MFFT of the film.

[4] = Water miscibility, % organic in water method (gravimetric); type: physicochemical; conditions: saturation point
Method: (§1) Water miscibility was measured by the following methods:
% Organic in Water Method:
The novel coalescent was added drop wise to 25 mL Milli-Q water and the mixture stirred at 1000 rpm for 10 minutes. If the coalescent dissolved, an additional drop or drops were added until traces of the organic solvent remained after the mixture had been stirred for 20 minutes. The percent organic solvent at the saturation point was determined gravimetrically.

[5] = Boiling point of coalescent; type: physicochemical
Method: The novel compounds were evaluated for their coalescing properties and compared to 2,2,4-trimethylpentane-1,3-diol monoisobutyrate (Texanol) and Optifilm Enhancer 400 (OE 400), two coalescents that are widely used in industry (Table 2).

[6] = Water miscibility, % water in solvent method (Karl Fischer); type: physicochemical; conditions: stirred approx. 48 hours
Method: as §1
% Water in Solvent Method:
Approximately 5-10 mL of the novel coalescent was slowly added to 10-15 mL Milli-Q water in an 8-dram vial. The mixture was slowly stirred for approximately 48 hours at 100-150 rpm. The organic layer was analyzed in triplicate for percent water by Karl Fischer methodology.

[7] = Rhoplex AC 2508, 10 phr coalescent, Initial
[8] = Rhoplex AC 2508, 10 phr, 120° F., 1 week
[9] = Rhoplex AC 2508, 10 phr, 120° F., 2 weeks
[10] = Rhoplex AC 2508, 10 phr, 120° F., 3 weeks
[11] = Rhoplex AC 2508, 10 phr, 120° F., 4 weeks
[12] = latex Acronal 296D, linear regression
[13] = latex Rhoplex HG-74P, linear regression
[14] = latex Rhoplex SG-10M, linear regression
[15] = latex Ucar 379G, linear regression
[16] = latex Ucar 626, linear regression
[17] = Rhoplex SG-10M, 10 phr coalescent, Initial
[18] = Rhoplex SG-10M, 10 phr, 120° F., 1 week
[19] = Rhoplex SG-10M, 10 phr, 120° F., 2 weeks
[20] = Rhoplex SG-10M, 10 phr, 120° F., 3 weeks
[21] = Rhoplex SG-10M, 10 phr, 120° F., 4 weeks
[22] = Rhoplex AC 2508, compared with industry standards

Row | Compound | Viscosity (cps) [1, 7] | pH [1, 7] | Viscosity (cps) [1, 8] | pH [1, 8] | Viscosity (cps) [1, 9] | pH [1, 9] | Viscosity (cps) [1, 10] | pH [1, 10] | Viscosity (cps) [1, 11] | pH [1, 11] | % non-volatile @ 110° C. for 1 hour [2] | Density (lbs/gal) (Density, ASTM D 1475-98) | phr of Coalescent required to lower MFFT to 40° F. [3, 12] | phr of Coalescent required to lower MFFT to 40° F. [3, 13] | phr of Coalescent required to lower MFFT to 40° F. [3, 14] | phr of Coalescent required to lower MFFT to 40° F. [3, 15] | phr of Coalescent required to lower MFFT to 40° F. [3, 16] | Water Miscibility % solvent in water layer [4] | Boiling Point (° C. @ 760 torr) [5] | Water Miscibility % water in solvent layer [6] | also measured
1 | CC(C)C(=O)C(C)(C)C(=O)OCCO [Example 1, 2-Hydroxyethyl 2,2,4-trimethyl-3-oxopentanoate] | 1430 cps | 8.3 | 1360 cps | 7.7 | 1150 cps | 7.7 | 1060 cps | 7.6 | 1070 cps | 7.4 | 10.6% | 8.75 lbs/gal | 4.2 phr | 8.2 phr | 4.7 phr | 1.5 phr | 6.5 phr | 5.0% | 254.8 °C | 7.6% | 
2 | CCCCC(CC)COCCOC(=O)C(C)(C)C(=O)C(C)C (stereo not shown) [Example 6, 2-(2-Ethylhexyloxy)ethyl 2,2,4-trimethyl-3-oxopentanoate] |  |  |  |  |  |  |  |  |  |  | 58.7% | 7.80 lbs/gal | 5.0 phr |  | 4.0 phr | 1.3 phr |  | 0.00% | 281.6 °C | 0.03% | Viscosity (cps) [1, 17]: 474 cps; pH [1, 17]: 8.6; Viscosity (cps) [1, 18]: 585 cps; pH [1, 18]: 8.4; Viscosity (cps) [1, 19]: 484 cps; pH [1, 19]: 8.8; Viscosity (cps) [1, 20]: 347 cps; pH [1, 20]: 8.8; Viscosity (cps) [1, 21]: 461 cps; pH [1, 21]: 8.4; hydrolytic stability, in words ([1]; Rhoplex SG-10M, compared with industry standards): better than the industry standards
3 | 2,2,4-trimethylpentane-1,3-diol monoisobutyrate [Texanol, reference compound] | 905 cps | 8.2 | 685 cps | 7.9 | 665 cps | 8.0 | 631 cps | 7.8 | 638 cps | 7.9 | 0.0% | 7.92 lbs/gal | 4.7 phr | 8.3 phr | 4.6 phr | 0.1 phr | 6.2 phr | 0.1% |  | 3.0% | Viscosity (cps) [1, 17]: 544 cps; pH [1, 17]: 8.7; Viscosity (cps) [1, 18]: 554 cps; pH [1, 18]: 8.5; Viscosity (cps) [1, 19]: 484 cps; pH [1, 19]: 8.8; Viscosity (cps) [1, 20]: 474 cps; pH [1, 20]: 8.6; Viscosity (cps) [1, 21]: 471 cps; pH [1, 21]: 8.3; Boiling Point (° C. @ 760 torr) ([5]; @ 760 torr): 255.0 °C
4 | CC(C)C(=O)C(C)(C)C(=O)OCC(C)(C)CO [Example 2, 3-Hydroxy-2,2-dimethylpropyl 2,2,4-trimethyl-3-oxopentanoate] | 1510 cps | 8.5 | 1260 cps | 8.4 | 1230 cps | 8.4 | 1220 cps | 8.3 | 1130 cps | 8.3 | 47.9% | 8.34 lbs/gal | 5.9 phr | 8.8 phr | 5.6 phr | 1.6 phr | 6.4 phr | 0.09% | 291.2 °C | 4.0% | hydrolytic stability, in words [1, 22]: better than the industry standards
5 | CC(C)C(=O)C(C)(C)C(=O)OCCOCCOCCOC(=O)C(C)(C)C(=O)C(C)C [Example 4] | 1380 cps | 8.4 | 1200 cps | 8.3 | 1210 cps | 8.2 | 1150 cps | 8.3 | 1100 cps | 8.2 | 99.0% | 8.82 lbs/gal | 5.8 phr | 9.1 phr | 6.7 phr | 1.3 phr | 7.0 phr | 0.09% | 320.0 °C | 0.01% | hydrolytic stability, in words [1, 22]: better than the industry standards; volatility, in words ([2]; compared with Texanol): almost completely nonvolatile
